Data published in patent publication US20240109853A1 (Shanghai Yao Yuan Biotechnology Co., Ltd., priority 2020, published 2024).

These molecules were tested against ALPK1 (Homo sapiens (Human), UniProt Q96QP1) (assay: ALPK1 in vitro kinase assay (HTRF of TIFA phosphorylation)). Settings: not given.
Chain of ALPK1 (Q96QP1 whole entry): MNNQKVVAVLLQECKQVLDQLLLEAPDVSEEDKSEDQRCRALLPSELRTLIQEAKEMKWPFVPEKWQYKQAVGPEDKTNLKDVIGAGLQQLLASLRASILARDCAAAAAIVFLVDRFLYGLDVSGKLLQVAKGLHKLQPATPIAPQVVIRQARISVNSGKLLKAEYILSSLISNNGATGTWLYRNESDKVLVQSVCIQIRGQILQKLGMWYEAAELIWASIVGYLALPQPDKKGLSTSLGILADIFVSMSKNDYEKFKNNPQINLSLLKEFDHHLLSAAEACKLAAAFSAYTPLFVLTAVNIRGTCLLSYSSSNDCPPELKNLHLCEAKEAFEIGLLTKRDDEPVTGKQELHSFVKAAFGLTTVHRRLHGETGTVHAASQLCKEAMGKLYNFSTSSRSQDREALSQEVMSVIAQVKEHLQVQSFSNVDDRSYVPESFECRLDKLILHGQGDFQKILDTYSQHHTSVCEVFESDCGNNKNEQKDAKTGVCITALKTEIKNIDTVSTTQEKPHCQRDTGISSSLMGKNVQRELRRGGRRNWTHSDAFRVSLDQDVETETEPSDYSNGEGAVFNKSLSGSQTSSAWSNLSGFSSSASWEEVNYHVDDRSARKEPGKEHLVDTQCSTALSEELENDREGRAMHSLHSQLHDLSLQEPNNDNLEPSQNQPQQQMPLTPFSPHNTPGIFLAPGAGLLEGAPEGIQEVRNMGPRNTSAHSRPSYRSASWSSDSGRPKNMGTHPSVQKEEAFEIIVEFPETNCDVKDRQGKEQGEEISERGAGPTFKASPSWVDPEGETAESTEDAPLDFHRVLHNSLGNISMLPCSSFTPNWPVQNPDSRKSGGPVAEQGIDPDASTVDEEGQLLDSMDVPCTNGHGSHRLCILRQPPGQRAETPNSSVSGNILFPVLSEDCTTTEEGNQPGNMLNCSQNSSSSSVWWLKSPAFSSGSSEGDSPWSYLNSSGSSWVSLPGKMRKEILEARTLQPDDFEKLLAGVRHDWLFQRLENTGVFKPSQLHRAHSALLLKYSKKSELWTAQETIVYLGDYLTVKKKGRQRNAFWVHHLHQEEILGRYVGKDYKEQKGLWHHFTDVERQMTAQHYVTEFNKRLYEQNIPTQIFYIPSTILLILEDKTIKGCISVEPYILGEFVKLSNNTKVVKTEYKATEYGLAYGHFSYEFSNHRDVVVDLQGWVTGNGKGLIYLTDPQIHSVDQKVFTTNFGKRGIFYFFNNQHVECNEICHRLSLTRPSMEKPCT
Format: biochemical
From the text: In embodiments, a compound of Formula I, or a subembodiment described herein, is an inhibitor of ALPK1 as measured, for example, in an in vitro kinase assay, or an assay designed to measure the activation of downstream targets of ALPK1 pathway activation, for example NFkB transcriptional activation and the secretion of proinflammatory cytokines and chemokines, such as IL-8, which is also referred to as CXCL-8. In general, the computer program XL fit was used for data analysis, including non-linear regression analysis. The half maximal inhibitory concentration (IC50) was used as the measure of a compound's effectiveness in the assays. IC50 values were determined using the following logistic equation Y=min+(max−min)/(1+(X/IC50^−hillslpoe), where Y is the value at the compound concentration, X. The concentration response curve fitting was conducted using GraphPad Prism version 6.00 software.
ALPK1 kinase activity was measured in an in vitro assay using ADP-Heptose as the ALPK1 ligand and activator of its kinase activity and TIFA protein as the ALPK1 phosphorylation substrate. Since phosphorylated TIFA proteins oligomerize, Homogeneous Time-Resolved Fluorescence (HTRF) was used to measure protein:protein interaction between HA-tagged TIFA proteins as an indicator of TIFA phosphorylation.
In brief, dose-response studies were performed with HEK293 cells cultured in Dulbecco's Modified Eagle Medium (DMEM) supplemented 10% fetal bovine serum (FBS, Hyclone™) containing antibiotics (pen/strep, G418) in 384-well assay plates. Each well contained 0.1 mg TIFA, ALPK1 (2 nM final concentration in reaction mixture) and kinase buffer (100 mM of HEPES pH 7.4, 4 mM DTT, 40 mM MgCl2, 20 mM of β-Glycerol phosphate disodium salt, 0.4 mM of Na3VO4, 0.16 mg/mL). Titrations of the test compounds were prepared in dimethylsulphoxide (DMSO). The reaction was initiated by addition of ATP and ADP-Heptose.
For HTRF, samples were incubated with a Tb cryptate-labeled anti-HA antibody for capturing HA-tagged proteins according to the manufacturer's instructions (PerkinElmer™, CisBio™) and the fluorescence signal was quantified (Tecan Infinite F NANO+). HTRF signals were calculated as the HTRF ratio (ratio of fluorescence measured at 665 nm and 620 nm)×104 (thereby using the signal at 620 nm as an internal standard).
IC50 values were determined using 3- or 4-parameter logistic equation using GraphPad Prism version 6.00. The reference compound, A027, was used as a positive control for each plate.
Work on `COc1ccc(C(C)(C)c2csc(NC(=O)NCCCC(N)=O)n2)cc1` [Example A114, 4-(3-(4-(2-(4-methoxyphenyl)propan-2-yl)thiazol-2-yl)ureido)butanamide] yielded an IC50 of 260 nM. `COc1ccc(C(C)(C)c2csc(NC(=O)NCc3ccc(N4CCC(O)C4)cc3)n2)cc1` (stereo not drawn) [Example A069, 1-(4-(3-hydroxypyrrolidin-1-yl)benzyl)-3-(4-(2-(4-methoxyphenyl)propan-2-yl)thiazol-2-yl)urea] showed an IC50 of 269 nM. `COc1ccc(C(C)(C)c2csc(NC(=O)NCc3ccc(N4CCC(N)C4)cc3)n2)cc1` (stereo not drawn) [Example A184, 1-(4-(3-aminopyrrolidin-1-yl)benzyl)-3-(4-(2-(4-methoxyphenyl)propan-2-yl)thiazol-2-yl)urea] gave an IC50 of 242 nM. `COc1ccc(C(C)(C)c2csc(NC(=O)NCc3cnc(N4CCNCC4)c(C(N)=O)c3)n2)cc1` [Example A209, 5-((3-(4-(2-(4-methoxyphenyl)propan-2-yl)thiazol-2-yl)ureido)methyl)-2-(piperazin-1-yl)nicotinamide] was tested, and the IC50 was 43 nM. `CCOc1ccc(C(C)(C)c2csc(NC(=O)NCc3ccc(N4CCNCC4)cc3)n2)cc1` [Example A059, 1-(4-(2-(4-ethoxyphenyl)propan-2-yl)thiazol-2-yl)-3-(4-(piperazin-1-yl)benzyl)urea] was tested, and the IC50 was 269 nM. Work on `CC(C)(c1ccc(Cl)cc1)c1csc(NC(=O)NCc2cnc(N3CCC(N)C3)nc2)n1` (stereo not drawn) [Example A068, 1-((2-(3-aminopyrrolidin-1-yl)pyrimidin-5-yl)methyl)-3-(4-(2-(4-chlorophenyl)propan-2-yl)thiazol-2-yl)urea] yielded an IC50 of 269 nM. Molecule `[2H]C([2H])(O)CNC(=O)Nc1nc([C@](C)(C#C)c2ccc(Cl)cc2)cs1` (single isomer, unassigned) [Example A320, 1-[4-[1-(4-chlorophenyl)-1-methyl-prop-2-ynyl]thiazol-2-yl]-3-(2,2-dideuterio-2-hydroxy-ethyl)urea] has an IC50 of 44 nM.

Same assay, conditions: ALPK1 2 nM, TIFA substrate, ADP-Heptose activator, HTRF readout
In the case of `C#C[C@](C)(c1ccc(F)cc1)c1csc(NC(=O)c2ccc(N3CCNCC3CO)cc2)n1` (stereo in doubt) [Example B070, N-[4-[1-(4-fluorophenyl)-1-methyl-prop-2-ynyl]thiazol-2-yl]-4-[2-(hydroxymethyl)piperazin-1-yl]benzamide], the IC50 is reported as 169 nM. `CC(c1ccc(Cl)cc1)(c1csc(NC(=O)c2c(F)cc(N3CCNCC3)cc2F)n1)C1CC1` (stereo not drawn) [Example C045, N-(4-(1-(4-chlorophenyl)-1-cyclopropylethyl)thiazol-2-yl)-2,6-difluoro-4-(piperazin-1-yl)benzamide] showed an IC50 of 25 nM. With `C#CC(C)(c1ccc(Cl)cc1)c1csc(NC(C)=O)n1` (stereo not drawn) [Example D004, N-(4-(2-(4-chlorophenyl)but-3-yn-2-yl)thiazol-2-yl)acetamide] the IC50 was 18 nM. For `O=C(Nc1nc(C2(c3ccc(Br)cc3)CCCC2)cs1)c1c(F)cc(N2CCNCC2)cc1F` [Example C026, N-(4-(1-(4-bromophenyl)cyclopentyl)thiazol-2-yl)-2,6-difluoro-4-(piperazin-1-yl)benzamide], the IC50 was 437 nM. `C#C[C@@](C)(c1ccc(F)cc1)c1csc(NC(=O)c2c(F)cc(N3CCC(N)C3)cc2F)n1` (stereo in doubt) [Example B091, 4-(3-aminopyrrolidin-1-yl)-2,6-difluoro-N-(4-(2-(4-fluorophenyl)but-3-yn-2-yl)thiazol-2-yl)benzamide] was tested, and the IC50 was 65 nM. Work on `C#CC(C)(c1ccc(Cl)cc1)c1csc(NC(=O)c2c(F)cc(N3CCN(C)CC3)cc2F)n1` (stereo not drawn) [Example C009, N-(4-(2-(4-chlorophenyl)but-3-yn-2-yl)thiazol-2-yl)-2,6-difluoro-4-(4-methylpiperazin-1-yl)benzamide] yielded an IC50 of 7 nM. For `COc1ccc(C(C)(C)c2csc(NC(=O)c3ccc(OCC(C)O)cc3)n2)cc1` (stereo not drawn) [Example B063, 4-(2-hydroxypropoxy)-N-(4-(2-(4-methoxyphenyl)propan-2-yl)thiazol-2-yl)benzamide], the IC50 was 245 nM. For `C#C[C@@](C)(c1csc(NC(=O)c2c(F)cc(N3CCNCC3)cc2F)n1)c1ccc(Cl)cc1F` (stereo in doubt) [Example C043, N-(4-(2-(4-chloro-2-fluorophenyl)but-3-yn-2-yl)thiazol-2-yl)-2,6-difluoro-4-(piperazin-1-yl)benzamide], the IC50 was 285 nM. Molecule `CCOCC(C)(c1ccccc1)c1csc(NC(=O)c2c(F)cc(N3CCNCC3)cc2F)n1` (stereo not drawn) [Example C012, N-(4-(1-ethoxy-2-phenylpropan-2-yl)thiazol-2-yl)-2,6-difluoro-4-(piperazin-1-yl)benzamide] has an IC50 of 78 nM. For `C#C[C@@](C)(c1ccc(Cl)cc1)c1csc(NC(=O)c2ccc(N3CCNC(CO)C3)cc2)n1` (stereo in doubt) [Example B077, N-(4-(2-(4-chlorophenyl)but-3-yn-2-yl)thiazol-2-yl)-4-(3-(hydroxymethyl)piperazin-1-yl)benzamide], the IC50 was 90 nM. With `C#CC(C)(c1ccc(F)cc1)c1csc(NC(=O)c2c(F)cc(N3CCNC(CO)C3)cc2F)n1` (stereo not drawn) [Example B082, 2,6-difluoro-N-(4-(2-(4-fluorophenyl)but-3-yn-2-yl)thiazol-2-yl)-4-(3-(hydroxymethyl)piperazin-1-yl)benzamide] the IC50 was 25 nM. `COCC(C)(c1ccc(Cl)cc1)c1csc(NC(=O)c2c(F)cc(N3CCNCC3)cc2F)n1` (stereo not drawn) [Example C029, N-(4-(2-(4-chlorophenyl)-1-methoxypropan-2-yl)thiazol-2-yl)-2,6-difluoro-4-(piperazin-1-yl)benzamide] was tested, and the IC50 was 128 nM. `C#CC(C)(c1ccc(Br)cc1)c1csc(NC(=O)C2CC(O)C2)n1` (stereo not drawn) [Example D007, N-(4-(2-(4-bromophenyl)but-3-yn-2-yl)thiazol-2-yl)-3-hydroxycyclobutanecarboxamide] gave an IC50 of 55 nM. For `C#C[C@](C)(c1ccc(F)cc1)c1csc(NC(=O)c2c(F)cc(N3CCC(N)C3)cc2F)n1` (stereo in doubt) [Example B089, 4-(3-aminopyrrolidin-1-yl)-2,6-difluoro-N-(4-(2-(4-fluorophenyl)but-3-yn-2-yl)thiazol-2-yl)benzamide], the IC50 was 681 nM. `C#CC(C)(c1ccc(Cl)cc1)c1csc(NC(=O)c2ccc(N3CCNCC3)cc2)n1` (stereo not drawn) [Example B062, N-(4-(2-(4-chlorophenyl)but-3-yn-2-yl)thiazol-2-yl)-4-(piperazin-1-yl)benzamide] showed an IC50 of 12 nM. `CC(C)(c1ccc(Br)cc1)c1csc(NC(=O)c2cnc(N3CCNCC3)nc2)n1` [Example B036, N-(4-(2-(4-bromophenyl)propan-2-yl)thiazol-2-yl)-2-(piperazin-1-yl)pyrimidine-5-carboxamide] was tested, and the IC50 was 110 nM. In the case of `CC(C)(c1ccc(Br)cc1)c1csc(NC(=O)c2ccc3[nH]ccc3c2)n1` [Example B002, N-(4-(2-(4-bromophenyl)propan-2-yl)thiazol-2-yl)-1H-indole-5-carboxamide], the IC50 is reported as 206 nM. In the case of `COc1ccc(C(C)(C)c2csc(NC(=O)c3ccc(N4CCC(N(C)C)C4)cc3)n2)cc1` (stereo not drawn) [Example B027, 4-(3-(dimethylamino)pyrrolidin-1-yl)-N-(4-(2-(4-methoxyphenyl)propan-2-yl)thiazol-2-yl)benzamide], the IC50 is reported as 219 nM. For `COc1ccc(C(C)(C)c2csc(NC(=O)c3ccc(NCCN)cc3)n2)cc1` [Example B033, 4-((2-aminoethyl)amino)-N-(4-(2-(4-methoxyphenyl)propan-2-yl)thiazol-2-yl)benzamide], the IC50 was 247 nM. Molecule `COc1ccc(C(C)(C)c2csc(NC(=O)c3ccc(NCCN(C)C)nc3)n2)cc1` [Example B056, 6-((2-(dimethylamino)ethyl)amino)-N-(4-(2-(4-methoxyphenyl)propan-2-yl)thiazol-2-yl)nicotinamide] has an IC50 of 120 nM. `C#CC(C)(c1ccc(Cl)cc1)c1csc(NC(=O)c2c(Cl)cc(N3CCNCC3)cc2Cl)n1` (stereo not drawn) [Example B096, 2,6-dichloro-N-(4-(2-(4-chlorophenyl)but-3-yn-2-yl)thiazol-2-yl)-4-(piperazin-1-yl)benzamide] showed an IC50 of 312 nM. `COc1ccc(C(C)(C)c2csc(NC(=O)c3ccc(CN4CCNCC4C)cc3)n2)cc1` (stereo not drawn) [Example B026, N-(4-(2-(4-methoxyphenyl)propan-2-yl)thiazol-2-yl)-4-((2-methylpiperazin-1-yl)methyl)benzamide] was tested, and the IC50 was 127 nM. Work on `COCC(C)(c1ccc(OC)cc1)c1csc(NC(=O)c2c(F)cc(N3CCNCC3)cc2F)n1` (stereo not drawn) [Example C028, 2,6-difluoro-N-(4-(1-methoxy-2-(4-methoxyphenyl)propan-2-yl)thiazol-2-yl)-4-(piperazin-1-yl)benzamide] yielded an IC50 of 288 nM.
